Each structure is given as a SMILES string. In brackets after ≈: the same amount, converted by molar mass.

Test [1] relates to Klebsiella pneumoniae. The experiment in a line: microbe, parasite or virus in culture. To be noted: ATCC 700603, 18 h, ASSAY_TEST Inhibition of Bacterial Growth, detection method Absorption (OD600), MEDIA CAMHB, plate type 384well, NBS, CORNING #3640.
Test [2] concerns Acinetobacter baumannii. Description: microbe, parasite or virus in culture. To be noted: ATCC 19606, 18 h, ASSAY_TEST Inhibition of Bacterial Growth, detection method Absorption (OD600), MEDIA CAMHB, plate type 384well, NBS, CORNING #3640.
In test [3] the test system is Candida albicans. Description: microbe, parasite or virus in culture. The settings on record: ATCC 90028, ASSAY_TEST Inhibition of Fungal Growth, detection method Absorption (OD530), plate type 384well, NBS, CORNING #3640.
The subject of test [4] is Staphylococcus aureus. Description: microbe, parasite or virus in culture. To be noted: ATCC 43300, 18 h, ASSAY_TEST Inhibition of Bacterial Growth, detection method Absorption (OD600), MEDIA CAMHB, plate type 384well, NBS, CORNING #3640.
Test [5] deals with HEK293. The experiment in a line: cells. Type of test: functional. The settings on record: Homo sapiens, ATCC CRL1573, HEK293; ASSAY_TEST Inhibition of Cell Viability; detection method Resazurin; Fluorescence (ex560/em590); MEDIA DMEM with 10% FBS; plate type 384well; TC; CORNING #3712; time 18 hr.
Test [6] deals with Escherichia coli. Description: microbe, parasite or virus in culture. The settings on record: ATCC 25922, 18 h, ASSAY_TEST Inhibition of Bacterial Growth, detection method Absorption (OD600), MEDIA CAMHB, plate type 384well, NBS, CORNING #3640.
Test [7] concerns Pseudomonas aeruginosa. The experiment in a line: microbe, parasite or virus in culture. To be noted: ATCC 27853, 18 h, ASSAY_TEST Inhibition of Bacterial Growth, detection method Absorption (OD600), MEDIA CAMHB, plate type 384well, NBS, CORNING #3640.
The subject of test [8] is Cryptococcus neoformans.

Consider `C#CCN(C)Cc1cc2cc(OCc3ccccc3)ccc2[nH]1.O=C(O)C(=O)O`, for which the MIC in test [1] is more than 32 µg/mL; in test [2], more than 32 µg/mL; in test [3], 32 µg/mL; in test [4], more than 32 µg/mL; in test [6], more than 32 µg/mL; in test [7], more than 32 µg/mL. Moreover, the MIC in test [8] is more than 32 µg/mL. Moreover, the CC50 in test [5] was more than 32 µg/mL.

Turning to `N#CC1=C(N)Oc2ccc3ccccc3c2C1c1ccc([N+](=O)[O-])cc1` (configuration not stated), the MIC in test [1], in test [2], in test [3], in test [4], in test [6] and in test [7] was more than 32 µg/mL throughout. In addition, the MIC in test [8] was more than 32 µg/mL. The molecule also gave a CC50 in test [5] of 1.88 µg/mL (≈ 5.48 µM).

For `CCOC(=O)C1=C(C)Nc2nc3c(c(N)c2C1c1ccccc1OC)CCCC3` (configuration not stated), the MIC was more than 32 µg/mL in test [1]; more than 32 µg/mL in test [2]; more than 32 µg/mL in test [3]; 32 µg/mL (≈ 81.3 µM) in test [4]; more than 32 µg/mL in test [6]; more than 32 µg/mL in test [7]. For the same molecule, in test [8], the MIC is more than 32 µg/mL.

With `COc1ccc2[nH]c3nc4c(c(N)c3c2c1)CCCC4`, the MIC in test [1] is more than 32 µg/mL; in test [2], more than 32 µg/mL; in test [3], more than 32 µg/mL; in test [4], more than 32 µg/mL; in test [6], more than 32 µg/mL; in test [7], 32 µg/mL (≈ 120 µM). Besides, in test [8], the MIC worked out at 32 µg/mL (≈ 120 µM). This molecule came in with a CC50 in test [5] of 15 µg/mL (≈ 56.1 µM).

Regarding `COc1nc(Cl)c(C#N)cc1C#N`, the MIC in test [1] was more than 32 µg/mL; in test [2], more than 32 µg/mL; in test [3] it was 16 µg/mL (≈ 82.6 µM); in test [4] it was more than 32 µg/mL; in test [6], more than 32 µg/mL; in test [7], more than 32 µg/mL. In test [8], this molecule showed an MIC of more than 32 µg/mL. The molecule also gave a CC50 in test [5] of 0.56 µg/mL (≈ 2.89 µM).

Regarding `CCOC(=O)C1=C(C)Nc2nc3c(c(N)c2C1c1ccccc1OC)CCCC3.Cl` (configuration not stated), the MIC is more than 32 µg/mL in test [1]; more than 32 µg/mL in test [2]; more than 32 µg/mL in test [3]; 32 µg/mL in test [4]; more than 32 µg/mL in test [6]; more than 32 µg/mL in test [7].

As to `CC1CC(=O)Nc2c1c(Br)nc1nc3c(c(N)c21)CCCC3` (configuration not stated), the MIC in test [1], in test [2], in test [3], in test [4], in test [6] and in test [7] was more than 32 µg/mL in each case. In test [8], this molecule gave an MIC of more than 32 µg/mL. The molecule also yielded a CC50 in test [5] of 4.01 µg/mL (≈ 11.1 µM).

Consider `C#CCNc1nc(NCCCC2CCN(Cc3ccccc3)CC2)c(C#N)c(-c2ccccc2)c1C#N`, for which the MIC in test [1], in test [2], in test [3], in test [4], in test [6] and in test [7] was more than 32 µg/mL throughout. Moreover, the MIC in test [8] stood at 32 µg/mL (≈ 65.5 µM). Besides, the CC50 in test [5] came out at 16 µg/mL (≈ 32.7 µM).

On to `C#CCN(C)Cc1cc2cc(OCCCC3CCN(Cc4ccccc4)CC3)ccc2[nH]1.O=C(O)C(=O)O`, for which the MIC in test [1], in test [2], in test [3], in test [4], in test [6] and in test [7] was more than 32 µg/mL throughout. The MIC in test [8] is more than 32 µg/mL. In addition, the CC50 in test [5] came out at 13.4 µg/mL.

Take `C#CCNc1nc(NCCC2CCN(Cc3ccccc3)CC2)c(C#N)c(-c2ccccc2)c1C#N`: the MIC in test [1], in test [2], in test [3], in test [4], in test [6] and in test [7] was more than 32 µg/mL in each case. The MIC in test [8] was more than 32 µg/mL. The molecule also gave a CC50 in test [5] of 11.3 µg/mL (≈ 23.8 µM).

As for `C#CCN(C)c1nc(N)c(C#N)c(-c2ccccc2)c1C#N`, the MIC in test [1], in test [2], in test [3], in test [4], in test [6] and in test [7] was more than 32 µg/mL throughout. For the same molecule, in test [8], the MIC was more than 32 µg/mL. Moreover, the CC50 in test [5] is more than 32 µg/mL.

As for `Nc1n[nH]c2nc3[nH]nc(N)c3c(-c3ccccc3)c12`, the MIC in test [1], in test [2], in test [3], in test [4], in test [6] and in test [7] was more than 32 µg/mL each time. Also, in test [8], the MIC was more than 32 µg/mL. In test [5], it took 8.23 µg/mL (≈ 31 µM) to reach half-maximal cytotoxicity (CC50).

As for `N#CC1=C(N)Oc2c(ccc3ccccc23)C1c1ccccc1[N+](=O)[O-]` (configuration not stated), the MIC in test [1], in test [2], in test [3], in test [4], in test [6] and in test [7] was more than 32 µg/mL throughout. In test [8], this molecule displayed an MIC of more than 32 µg/mL. In test [5], the CC50 was more than 32 µg/mL.

Turning to `C#CCN(C)c1nc(NCCCCC2CCN(Cc3ccccc3)CC2)c(C#N)c(-c2ccccc2)c1C#N.Cl`, the MIC in test [1], in test [2], in test [3], in test [4], in test [6] and in test [7] was more than 32 µg/mL throughout. Also, the MIC in test [8] amounted to 16 µg/mL. This molecule gave a CC50 in test [5] of 4.12 µg/mL.

With `CN(Cc1cn(-c2ccccc2)nn1)Cc1cc2cc(OCCCC3CCN(Cc4ccccc4)CC3)ccc2n1C.Cl`, the MIC in test [1], in test [2], in test [3], in test [4], in test [6] and in test [7] was more than 32 µg/mL throughout. The MIC in test [8] was more than 32 µg/mL. The same molecule showed a CC50 in test [5] of 3.55 µg/mL.

For `C#CCNc1nc(Cl)c(C#N)cc1C#N`, the MIC in test [1] was more than 32 µg/mL; in test [2], more than 32 µg/mL; in test [3], 32 µg/mL (≈ 148 µM); in test [4], more than 32 µg/mL; in test [6] it was more than 32 µg/mL; in test [7], more than 32 µg/mL. In addition, in test [8], the MIC was more than 32 µg/mL. The CC50 in test [5] was 22.4 µg/mL (≈ 103 µM).

As for `C#CCNc1ccc(Cl)cn1`, the MIC in test [1], in test [2], in test [3], in test [4], in test [6] and in test [7] was more than 32 µg/mL in each case. In test [8], this molecule showed an MIC of more than 32 µg/mL. Besides, the CC50 in test [5] was more than 32 µg/mL.

`C#CCNc1nc(NCCCCC2CCN(Cc3ccccc3)CC2)c(C#N)c(-c2ccccc2)c1C#N`: the MIC in test [1], in test [2], in test [3], in test [4], in test [6] and in test [7] was more than 32 µg/mL in each case. The MIC in test [8] was more than 32 µg/mL. Moreover, in test [5], the midpoint of cytotoxicity, the CC50, lay at 3.46 µg/mL (≈ 6.88 µM).

Take `C#CCN(C)Cc1cc2cc(OCCCC3CCNCC3)ccc2n1C.C#CCN(C)Cc1cc2cc(OCCCC3CCNCC3)ccc2n1C.Cl.Cl.Cl.Cl.O`: the MIC in test [1], in test [2], in test [3], in test [4], in test [6] and in test [7] was more than 32 µg/mL in each case. Moreover, the MIC in test [8] was more than 32 µg/mL. Besides, in test [5], the CC50 was 17.2 µg/mL.

`N#CC1(Br)C(=N)Oc2ccc3ccccc3c2C1c1ccccc1[N+](=O)[O-]` (configuration not stated): the MIC in test [1], in test [2], in test [3], in test [4], in test [6] and in test [7] was more than 32 µg/mL each time. In test [8], this molecule registered an MIC of more than 32 µg/mL. The CC50 in test [5] stood at 5.83 µg/mL (≈ 13.8 µM).

(Values after ChEMBL document CHEMBL4513135, “CO-ADD screening of IQOG CSIS (Spain) compounds”.)
